Source: US8426394B2, “Progesterone antagonists such as CDB-4124 in the treatment of endometriosis, uterine fibroids, dysmenorrhea, breast cancer, etc” (Repros Therapeutics Inc., priority 2008, dated 2013)

What was measured:
[1] = test system: pre-menopausal adult women diagnosed with endometriosis; assay: Six month study of Proellex (CDB-4124) in the treatment of endometriosis; type: in vivo, human; settings: for change in endometrial thickness from baseline (ultrasound): statistically insignificant
[2] = test system: progesterone-induced endometrial proliferation in the rabbit uterus; assay: anti-McGinty and anti-Clauberg assays (biological activity in the rabbit uterus); type: in vivo; settings: in comparison to RU 486 and CDB-2914
Source text: Also given in Table 1 are the relative biological activities of the same compounds in the rabbit uterus by the anti-McGinty and anti-Clauberg assays. Compound CDB-2914 (listed at the end of the Table) was used as the control or reference compound (rabbit Biological Activity=1.00) for these experiments because results of experiments using CDB-2914 have been published before (Hild-Petito et al., 1996; Passaro et al., 1997; Reel et al., 1998; Lamer et al., 2000). For the anti-McGinty test, immature female rabbits received a subcutaneous injection of 5 μg estradiol in 10% ethanol/sesame oil daily for 6 consecutive days. On day 7, animals underwent sterile abdominal surgery to ligate a 3-4 cm segment of both uterine horns. The test compound in appropriate solvent was injected intraluminally into the ligated segment of one uterine horn and vehicle alone into the other. […] Five micron sections stained with hematoxylin and cosin were evaluated microscopically for the degree of endometrial glandular proliferation. The percent inhibition of endometrial proliferation for each rabbit was calculated and the mean of the group of five animals recorded. […] Five micron sections stained with hematoxylin and eosin were evaluated microscopically for the degree of endometrial glandular proliferation. […]

[3] = Serum corticosterone in rats; settings: progesterone, CDB-4124 and RU-486 groups compared
[4] = test system: females suffering from endometriosis; assay: Example 12: 12.5 mg CDB-4124 beginning at day 5 versus day 15 of the menstrual cycle; type: in vivo, human; settings: 12.5 mg for a six-month period
Experimental: Females suffering from endometriosis are divided into two groups: a first group receives 12.5 mg of CDB-4124 for a six-month period beginning at day 5 of each female's menstrual cycle; a second group receives 12.5 mg of CDB-4124 for a six-month period beginning at day 15 of each female's menstrual cycle. Endometrial thickness is monitored regularly throughout the six-month period.

[5] = test system: pre-menopausal adult women diagnosed with endometriosis; assay: Six month study of Proellex (CDB-4124) in the treatment of endometriosis; type: in vivo, human
Experimental: Pain reduction also occurred more rapidly than with the active control, Lucrin®. The response of pain to treatment in this study was analyzed in two ways. Patients in the study maintained daily pain diaries to record the severity and frequency of pain. In addition, at each office visit, patients filled out endometriosis symptom surveys that included a questionnaire that evaluated intensity of pain on a bad day on a scale of 0-10 with 10 being the greatest intensity. […] There appeared to be a dose dependent effect on pain reduction. […] This decrease in duration of pain was statistically better (p=0.0012) than the 117.8 (74%; standard deviation 51.4 days) pain free days achieved with Lucrin®. […] Patients on CDB-4124 12.5 mg and 25 mg doses had 115.9 (66%; standard deviation 69.2 days) and 133.6 (75%; standard deviation 27.4 days) pain free days, respectively. […] The 25 mg and 12.5 mg doses of CDB-4124 were not statistically different from Lucrin®. […] The intensity of pain was assessed by the question: “On a […], with 0 being no pain and 10 being extreme pain, how intense was your pain on a bad day?” The mean scores for intensity of pain at baseline were 6.3 for the CDB-4124 groups and 6.1 for the Lucrin® group. […] At month three all four active treatment groups had statistically significant reduction in pain compared with baseline, with the following scores: 3.7 (p=0.03) for 12.5 mg CDB-4124, 3.2 (p=0.03) for 25 mg CDB-4124, 1.6 (p=0.015) for 50 mg CDB-4124 and 1.5 (p=0.016) for Lucrin®. These dose related reductions continued until month six when the values for pain intensity were 2.0 (p=0.008), 2.8 (p=0.023), 0.6 (p=0.004) and 0.7 (p=0.016), respectively. Two months after stopping treatment pain returned and was of similar intensity in all four treatment groups.

[6] = target: opiate μ receptor (MOP) (Homo sapiens, UniProt P35372); assay: Affinity for and inhibition of opiate μ receptor; type: binding
Sequence of opiate μ receptor (MOP) (P35372 whole entry): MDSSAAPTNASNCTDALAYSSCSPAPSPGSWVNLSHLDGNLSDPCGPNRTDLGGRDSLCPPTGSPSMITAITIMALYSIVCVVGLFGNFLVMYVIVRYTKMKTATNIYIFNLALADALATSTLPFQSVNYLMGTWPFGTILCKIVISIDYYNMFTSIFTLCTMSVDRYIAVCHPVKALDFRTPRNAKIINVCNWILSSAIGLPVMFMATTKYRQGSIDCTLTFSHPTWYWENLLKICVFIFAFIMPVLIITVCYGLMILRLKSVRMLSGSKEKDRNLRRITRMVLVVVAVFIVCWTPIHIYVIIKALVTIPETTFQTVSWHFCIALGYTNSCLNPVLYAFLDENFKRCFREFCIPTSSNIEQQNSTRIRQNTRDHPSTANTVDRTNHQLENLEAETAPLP

[7] = test system: women with uterine fibroids; assay: Three month study in women with uterine fibroids; type: in vivo, human; settings: 12.5 mg or 25 mg daily for three months, begun at day 5 of cycle
Experimental: In a separate study, women with uterine fibroids were administered daily doses of 12.5 mg, 25 mg or 50 mg CDB-4124 for a three month period, beginning at day 5 of each woman's menstrual cycle.

SMILES: COCC(=O)[C@@]1(OC(C)=O)CC[C@H]2[C@@H]3CCC4=CC(=O)CCC4=C3[C@@H](c3ccc(N(C)C)cc3)C[C@@]21C [CDB-4124, 21-methoxy-17α-acetoxy-11β-(4 N,N-dimethylaminophenyl)-19-norpregna-4,9-diene-3,20-dione]
- increase in endometrial thickness from baseline (ultrasound) ([1]; 12.5 mg dose, after six months, begun at day 5 of cycle, statistically significant (p 0.016)): 10.9 mm
- change in endometrial thickness from baseline (ultrasound) ([1]; 25 mg dose, after six months, begun at day 5 of cycle): 9.8 mm
- change in endometrial thickness from baseline (ultrasound) ([1]; 50 mg dose, after six months, begun at day 5 of cycle): 3.9 mm
- biomarkers of bone resorption ([1]; any of the dose arms of CDB-4124, three and six months of treatment): no significant changes
- antiprogestin activity in the rabbit uterus [2]: strong
- differences in serum corticosterone between treatment groups [3]: No differences
- endometrial thickening, group begun at day 15 versus group begun at day 5 [4]: lesser degree of endometrial thickening
- intensity of pain on a bad day (score) ([5]; month six, 12.5 mg CDB-4124, scale 0-10, p=0.008): 2.0
- intensity of pain on a bad day (score) ([5]; month six, 25 mg CDB-4124, scale 0-10, p=0.023): 2.8
- intensity of pain on a bad day (score) ([5]; month six, 50 mg CDB-4124, scale 0-10, p=0.004): 0.6
- intensity of pain on a bad day (score) ([5]; month three, 12.5 mg CDB-4124, scale 0-10, baseline 6.3, p=0.03): 3.7
- intensity of pain on a bad day (score) ([5]; month three, 25 mg CDB-4124, scale 0-10, baseline 6.3, p=0.03): 3.2
- intensity of pain on a bad day (score) ([5]; month three, 50 mg CDB-4124, scale 0-10, baseline 6.3, p=0.015): 1.6
- affinity for / inhibition of the opiate μ receptor (MOP) [6]: has affinity for and can inhibit
- mean endometrial thickness [7]: less than 20 mm
- subjects with a significant bleeding episode [7]: None
